Converted amounts (≈) assume the structure as drawn.

Results on two compounds are retold here after patent US9969758B2, “Antimicrobial compounds” (BIOMERIEUX, priority 2014, dated 2018).

What all share (assay): MIC by agar dilution, single strains
Type in all cases: cell-based

The test system of assay [1] is Staphylococci epidermidis NCTC 11047. The settings on record: 22 hours of incubation, read-out: Minimum inhibitory concentration (MIC). As to the method:
(§1) Determining the minimum inhibitory concentrations (MIC). All the MICs were determined using an agar dilution method. This required use of a medium without a defined antagonist (peptone-free), prepared as described previously with the inclusion of 2% horse blood lysed with saponin, 25.0 μg/mL of NAD and 25.0 μg/mL of hemin [17]. The compounds tested were dissolved in sterile deionised water and incorporated into the agar medium in a concentration range of 0.0031 to 8.0 μg/mL (0.016 to 32 μg/mL for gram-positive bacteria). All the isolates were prepared at a density equivalent to 0.5 McFarland units in sterile deionised water using a densitometer (approximately 1.5×10^8 CFU/mL), and then diluted to 1 for 15. An aliquot of 1 μL of each diluted suspension was then placed onto plates with a multispot inoculator to give the final recommended inoculation of 10 000 CFU/spot. The MICs of fosfomycin were determined by the same method, except that the IsoSensitest medium (Oxoid, Basingstoke, United Kingdom) was used, plus 25.0 μg/mL of glucose-6-phosphate (Sigma, Poole, United Kingdom) and an extended range of fosfomycin concentrations. All the dishes (including the antimicrobial-free controls) were incubated for 22 hours at 37° C. All the tests were performed on at least two independent replicates in order to examine the reproducibility.

The test system of assay [2] is Serratia marcescens NCTC 10211. The following applies: NCTC10211, 22 hours of incubation, read-out: Minimum inhibitory concentration (MIC). As to the method: as §1
For assay [3], the system named is Burkholderia cepacia ATCC 25416. The following applies: ATCC25416, 22 hours of incubation, read-out: Minimum inhibitory concentration (MIC). On the procedure: as §1
The test system of assay [4] is Enterobacter cloacae NCTC 11936. The following applies: NCTC11936, 22 hours of incubation, read-out: Minimum inhibitory concentration (MIC). As to the method: as §1
Assay [5] concerns Acinetobacter baumannii ATCC 19606. The settings on record: ATCC19606, 22 hours of incubation, read-out: Minimum inhibitory concentration (MIC). As to the method: as §1
The test system of assay [6] is Salmonella typhimurium NCTC 74. The settings on record: Salmonella enterica, 22 hours of incubation, read-out: Minimum inhibitory concentration (MIC). On the procedure:
as §1

Assay [7] deals with Enterococcus faecalis NCTC 775. The following applies: NCTC775, 22 hours of incubation, read-out: Minimum inhibitory concentration (MIC). On the procedure:
as §1

Assay [8] relates to Escherichia coli NCTC 12241. The settings on record: NCTC12241, 22 hours of incubation, read-out: Minimum inhibitory concentration (MIC). On the procedure: as §1
In assay [9] the test system is Klebsiella pneumoniae NCTC 9528. The following applies: NCTC9528, 22 hours of incubation, read-out: Minimum inhibitory concentration (MIC). On the procedure: as §1
The subject of assay [10] is Providencia rettgeri NCTC 7475. The settings on record: NCTC7475, 22 hours of incubation, read-out: Minimum inhibitory concentration (MIC). As to the method:
as §1

Assay [11] relates to Enterococcus faecium NCTC 7171. The settings on record: NCTC7171, 22 hours of incubation, read-out: Minimum inhibitory concentration (MIC). As to the method:
as §1

Assay [12] deals with Escherichia coli NCTC 10418. The settings on record: NCTC10418, 22 hours of incubation, read-out: Minimum inhibitory concentration (MIC). On the procedure:
as §1

Assay [13] concerns Pseudomonas aeruginosa NCTC 10662. The following applies: NCTC10662, 22 hours of incubation, read-out: Minimum inhibitory concentration (MIC). On the procedure:
as §1

Assay [14] concerns Yersinia enterocolitica NCTC 11176. The following applies: NCTC11176, 22 hours of incubation, read-out: Minimum inhibitory concentration (MIC). On the procedure: as §1
The subject of assay [15] is Staphylococcus aureus NCTC 11939 (SARM). The settings on record: NCTC11939, 22 hours of incubation, read-out: Minimum inhibitory concentration (MIC). As to the method:
as §1

The subject of assay [16] is Listeria monocytogenes NCTC 11994. The settings on record: NCTC11994, 22 hours of incubation, read-out: Minimum inhibitory concentration (MIC). On the procedure:
as §1

For assay [17], the system named is Staphylococcus aureus NCTC 6571. The settings on record: NCTC6571, 22 hours of incubation, read-out: Minimum inhibitory concentration (MIC). As to the method: as §1
Assay [18] relates to Salmonella enteritidis NCTC 6676. The following applies: Salmonella enterica, 22 hours of incubation, read-out: Minimum inhibitory concentration (MIC). As to the method:
as §1

Turning to `CSCC[C@H](N)C(=O)N[C@@H](CCl)C(=O)NC(C)P(=O)(O)O` (stereo partly drawn) [compound H, L-methionyl-β-chloro-L-alanyl-D/L-fosfalin], the MIC in assay [1] is 1 µg/mL (≈ 2.76 µM); in [2] it was 0.25 µg/mL (≈ 0.691 µM); in [3] it was > 8 µg/mL; in assay [4], 4 µg/mL (≈ 11.1 µM); in [5], > 8 µg/mL; in assay [6], > 8 µg/mL. Moreover, the MIC in assay [7] is 0.032 µg/mL (≈ 0.0884 µM); in assay [8] it was 0.5 µg/mL (≈ 1.38 µM); in [9], 0.5 µg/mL (≈ 1.38 µM); in assay [10], > 8 µg/mL; in [11], 1 µg/mL (≈ 2.76 µM); in assay [12], 0.5 µg/mL (≈ 1.38 µM). Besides, the MIC in assay [13] was > 8 µg/mL; in assay [14], 0.25 µg/mL (≈ 0.691 µM); in [15], > 8 µg/mL; in assay [16] it was > 8 µg/mL; in assay [17], 2 µg/mL (≈ 5.53 µM); in assay [18], > 8 µg/mL.
As for `CSCC[C@H](N)C(=O)N[C@@H](C)C(=O)NC(C)P(=O)(O)O` (stereo partly drawn) [compound J, L-methionyl-L-alanyl-D/L fosfalin], the MIC in assay [1] was 2 µg/mL (≈ 6.11 µM); in assay [2], 0.5 µg/mL (≈ 1.53 µM); in assay [3], > 8 µg/mL; in assay [4], > 8 µg/mL; in assay [5], > 8 µg/mL; in assay [6] it was > 8 µg/mL. In addition, the MIC in assay [7] is 0.125 µg/mL (≈ 0.382 µM); in assay [8], 2 µg/mL (≈ 6.11 µM); in assay [9], 0.5 µg/mL (≈ 1.53 µM); in assay [10] it was > 8 µg/mL; in assay [11] it was 4 µg/mL (≈ 12.2 µM); in assay [12], 2 µg/mL (≈ 6.11 µM). Moreover, the MIC is > 8 µg/mL in assay [13]; 0.5 µg/mL (≈ 1.53 µM) in assay [14]; > 8 µg/mL in [15]; > 8 µg/mL in assay [16]; 1 µg/mL (≈ 3.05 µM) in assay [17]; > 8 µg/mL in [18].
